The term Ki denotes the equilibrium dissociation constant of an inhibitor or competing ligand from its target.

Data set [1] relates to Morrison rat model eye with elevated intraocular pressure. The experiment in a line: Morrison rat model for glaucoma, IOP by tonometer after topical application. It counts as in vivo. From the text: The Intraocular Pressure (“IOP”) in a rat eye was lowered following treatment of the eye with about a 1% (w/v) phenanthroline solution. Briefly, the IOP was elevated in one eye for rats grouped as specified below by using the method as described by Morrison et al (1997). […] The other eyes was used as a control. Rats were housed post-surgically in constant low light (<90 lux) to minimize effects of circadian influences on IOP. Five rats were used per treatment group.
A solution of 1,7-phenanthroline was prepared by dissolving 10 mg of 1,7-phenanthroline in 32 μl methanol (100%) forming a concentrated 1,7-phenanthroline solution. About 3 μl of the concentrated 1,7-phenanthroline solution was then added to 96 μl of saline (0.9% NaCl) to form a working 1,7-phenanthroline solution. The working 1,7-phenanthroline solution was then used in the eye of the Morrison Model of Glaucoma. The average intraocular pressure (IOP) in Morrison model eye was 26.22 (average of nine readings) prior to application of the working 1,7-phenanthroline solution. In contrast, the IOP measured 6 hr after application of the working 1,7-phenanthroline solution dropped to 25.66, as shown in FIG. 6A.
(§1) A solution of 4,7-dihydroxy-1,10-phenanthroline was prepared by dissolving 7 mg of 4,7-dihydroxy-1,10-phenanthroline in 22 μl methanol, 30 μl 1 N NaOH, and 626 μl of saline (0.9% NaCl) forming a 4,7-dihydroxy-1,10-phenanthroline solution having a pH of about 10.42. […] The 4,7-dihydroxy-1,10-phenanthroline solution was centrifuged at 10,000×g for about 5 min to remove the precipitate. The clear supernatant was removed and used for testing the Morrison model eye. The average intraocular pressure (IOP) in the eye with elevated pressure was 27.77 (average of nine readings) prior to application of the drug.
(§2) A solution of 1,10-phenanthroline 5,6-dione was prepared by dissolving 7 mg of 1,10-phenanthroline 5,6-dione in 44 μl methanol, and 88 μl dimethylsulfoxide (DMSO). […] The 1,10-phenanthroline 5,6-dione solution with precipitate was centrifuged at 10,000×g for 5 min, and the clear supernatant was removed. 6 μl of the supernatant plus 97 μl of saline formed the working solution used in the Morison model of glaucoma. The average intraocular pressure (IOP) in eye with elevated pressure was 27.66 (average of nine readings) prior to application of the drug.

The target in a further data set is T1, thermolysin (Bacillus thermoproteolyticus, UniProt P00800).
T1 sequence (P00800 233-548): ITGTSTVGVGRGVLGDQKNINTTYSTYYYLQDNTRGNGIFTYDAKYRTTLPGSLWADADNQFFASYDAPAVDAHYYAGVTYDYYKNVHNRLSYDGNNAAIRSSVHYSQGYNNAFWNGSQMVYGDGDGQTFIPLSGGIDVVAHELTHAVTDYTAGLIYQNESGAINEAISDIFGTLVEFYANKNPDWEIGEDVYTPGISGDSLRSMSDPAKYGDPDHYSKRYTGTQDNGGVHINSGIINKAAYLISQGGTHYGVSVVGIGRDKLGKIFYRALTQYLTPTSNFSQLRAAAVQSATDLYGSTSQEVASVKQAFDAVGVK
To be noted: reversible inhibitor; cited from earlier work.

Data set [2] in a line: Solubility observed while preparing the test solution. It counts as physicochemical. How it is done:
as §1, §2

Another data set has as its system patients. To be noted: patients treated with latanoprost; cited from earlier work.

For `c1cnc2c(c1)ccc1cccnc12` [phenanthroline, 1,10-phenanthroline], in data set [1] (1% (w/v) in saline, 20-25 μl topically once, 22 and 27 days following surgery, cohort 2-4-04, IOP measured after 1 hour and 6 hours), the “intraocular pressure (FIG. 4)” value is on record as “decreased”. Further, the “intraocular pressure (FIG. 5)” value in data set [1] (1% phenanthroline, 27 days following surgery, ID#1-17-48 in cohort 2-4-04) is “decreased”. The inhibition constant Ki at thermolysin is 40 µM.
On to `O=C1C(=O)c2cccnc2-c2ncccc21` [1,10-phenanthroline 5,6-dione], for which the “IOP measured 6 hr after application (FIG. 6C)” value in data set [1] (6 μl supernatant (7 mg in 44 μl methanol, 88 μl DMSO) plus 97 μl saline, average IOP 27.66 (nine readings) prior to application) amounted to 25.44. Besides, the “solubility in methanol and DMSO” value in data set [2] (7 mg in 44 μl methanol and 88 μl dimethylsulfoxide) is “the entire drug was not solubilized”.
Consider `Oc1ccnc2c1ccc1c(O)ccnc12` [4,7-dihydroxy-1,10-phenanthroline], for which, in data set [1] (clear supernatant of 7 mg in 22 μl methanol, 30 μl 1 N NaOH, 626 μl saline, adjusted to pH 7.7, average IOP 27.77 (nine readings) prior to application), the “IOP measured 6 hr after application (FIG. 6B)” value is recorded as 26.22. Moreover, the “solubility on adjusting solution from pH about 10.42 to pH 7.7” value in data set [2] (7 mg in 22 μl methanol, 30 μl 1 N NaOH, 626 μl saline, 1N HCl) is given as “some precipitation of the drug”.
Turning to `c1cnc2c(c1)ccc1ncccc12` [1,7-phenanthroline], in data set [1] (working solution: 10 mg in 32 μl methanol, 3 μl added to 96 μl saline, average IOP 26.22 (nine readings) prior to application), the “IOP measured 6 hr after application (FIG. 6A)” value is 25.66.
As for `CC(C)OC(=O)CCC/C=C\C[C@@H]1[C@@H](CC[C@@H](O)CCc2ccccc2)[C@H](O)C[C@@H]1O` [latanoprost, Latanoprost], the “increased iris pigmentation, share of patients” value with patients was “up to one in six”.

(Values after patent publication US20060111388A1, “Phenanthroline and derivatives thereof used to lower intraocular pressure in an affected eye” (University of North Texas Health Science Center at Fort …, priority 2004, published 2006).)
